Test results: article PMC10977697 (PLOS ONE, 2024)
Read-outs that look alike come from different tables or passages of the source. Where no end group is shown, it is not given here.

Key:
Fz7CRD-Fc = type: binding; settings: for S/N: ratio of signal for target protein over BSA background; for ELISA: spot phage ELISA signal, DCP displayed on M13 p8
HtrA1 = type: binding, human
Lgr5ECD-Fc = type: binding, human; settings: ratio of signal for target protein over BSA background
[1] = ratio of signal for target protein over BSA background

| Compound | S/N (HtrA1; [1]) | further results |
| --- | --- | --- |
| GPTQSAFGECGGIGYSGPTVCASGTTCQVLSPYWSFCLPGAS (also: bicyclic or more (positions not given here)) [Fz7CRD-Fc CBD 15] |  | S/N (Fz7CRD-Fc): 38.4; ELISA (Fz7CRD-Fc): 2.76 |
| GPTQSAWGWCGGIGYSGPTVCASGTTCQVLSPYESYCLPGAS (also: bicyclic or more (positions not given here)) [Fz7CRD-Fc CBD 53] |  | S/N (Fz7CRD-Fc): 4.3; ELISA (Fz7CRD-Fc): 0.32 |
| AFDCLGQCGRCDFHKLQCVWRWMHQYCNSSCTR (also: bicyclic or more (positions not given here)) [HtrA1 AVR9 2] | 22.7 |  |
| AFDCLGQCGRCDFHKLQCVWSIYVKFWYCNSSCTR (also: bicyclic or more (positions not given here)) [HtrA1 AVR9 4] | 21.2 |  |
| AFDCLGQCGRCDFHKLQCVLWTVANMQHYYCNSSCTR (also: bicyclic or more (positions not given here)) [HtrA1 AVR9 85] | 6.5 |  |
| WIPCISAALGCSCKNKVCYFFHKLMYYMCGESCV (also: bicyclic or more (positions not given here)) [HtrA1 CirculinA 24] | 17.7 |  |
| AFDCLGQCGRCDFHKLQCVFWHWYYCNSSCTR (also: bicyclic or more (positions not given here)) [HtrA1 AVR9 84] | 8.5 |  |
| AFDCLGQCGRCDFHKLQCVRWSIDAIIIWYCNSSCTR (also: bicyclic or more (positions not given here)) [HtrA1 AVR9 42] | 12.1 |  |
| WIPCISAALGCSCKNKVCYYTILPISYYWHLVCGESCV (also: bicyclic or more (positions not given here)) [HtrA1 CirculinA 45] | 8.2 |  |
| WIPCISAALGCSCKNKVCYYVMKYCGESCV (also: bicyclic or more (positions not given here)) [HtrA1 CirculinA 17] | 13.7 |  |
| AFDCLGQCGRCDFHKLQCVIQQMRWKAQPDGYCNSSCTR (also: bicyclic or more (positions not given here)) [HtrA1 AVR9 37] | 9.7 |  |
| GCTLYMYLCKQDSDCLAGWMFHHCG [Fz7CRD-Fc EET I-II 26] |  | S/N (Fz7CRD-Fc): 28.9; ELISA (Fz7CRD-Fc): 1.79 |
| GCGYWYITWFCKQDSDCLAGCVCGPNGFCG (also: bicyclic or more (positions not given here)) [Fz7CRD-Fc EET I-II 30] |  | S/N (Fz7CRD-Fc): 3.0; ELISA (Fz7CRD-Fc): 2.64 |
| AFDCLGQCGRCDFHKLQCVVTIIRKMMLWYCNSSCTR (also: bicyclic or more (positions not given here)) [HtrA1 AVR9 31] | 19.0 |  |
| GPTQSHYGQCGGWGYTGWYQCASGTTCQGPRSRLSQCLPGAS (also: bicyclic or more (positions not given here)) [HtrA1_CBDwt46] | 25.9 |  |
| CC[C@H](C)[C@@H]1NC(=O)[C@H](CO)NC(=O)[C@@H]2CSSC[C@@H]3NC(=O)[C@H](CO)NC(=O)CNC(=O)[C@H]([C@@H](C)O)NC(=O)[C@H](CSSC[C@H](N)C(=O)N[C@@H](CCCCN)C(=O)NCC(=O)N[C@@H](CCCCN)C(=O)NCC(=O)N[C@@H](C)C(=O)N[C@@H](CCCCN)C(=O)N2)NC(=O)[C@H](CSSC[C@@H](C(=O)O)NC(=O)[C@H](CCCCN)NC(=O)CNC(=O)[C@H](CO)NC(=O)[C@H](CCCNC(=N)N)NC3=O)NC(=O)[C@H](C(C)C)NC(=O)[C@H](CCCCN)NC(=O)[C@H](Cc2c[nH]c3ccccc23)NC(=O)[C@@H]2CCCN2C(=O)[C@H](Cc2ccc(O)cc2)NC(=O)[C@H](C(C)C)NC(=O)[C@H](CO)NC(=O)[C@H](Cc2c[nH]c3ccccc23)NC(=O)[C@H](CCC(N)=O)NC1=O [HtrA1_CnTx83] |  | S/N (HtrA1): 16.1 |
| AFDCLGQCGRCDFHKLQCVWRYIQKMRYCNSSCTR (also: bicyclic or more (positions not given here)) [HtrA1 AVR9 89] | 14.9 |  |
| GPTQSHYGQCGGRGYFGTMYCASGTTCQFKWRRDSQCLPGAS (also: bicyclic or more (positions not given here)) [HtrA1 CBD 74] | 22.8 |  |
| AFDCLGQCGRCDFHKLQCVLWHQWVKWYVYCNSSCTR (also: bicyclic or more (positions not given here)) [HtrA1 AVR9 68] | 8.9 |  |
| AFDCLGQCGRCDFHKLQCVAWLMYSFVRPYCNSSCTR (also: bicyclic or more (positions not given here)) [HtrA1 AVR9 53] | 7.3 |  |
| WIPCISAALGCSCKNKVCYHFQHWVQMNKCGESCV (also: bicyclic or more (positions not given here)) [HtrA1 CirculinA 82] | 10.4 |  |
| AFDCLGQCGRCDFHKLQCVMMRLLARWVFKFYCNSSCTR (also: bicyclic or more (positions not given here)) [HtrA1 AVR9 52] | 13.2 |  |
| AFDCLGQCGRCDFHKLQCVKQVMATLWSMYCNSSCTR (also: bicyclic or more (positions not given here)) [HtrA1 AVR9 39] | 9.9 |  |
| WIPCISAALGCSCKNKVCYILNRSCGESCV (also: bicyclic or more (positions not given here)) [HtrA1 CirculinA 40] | 8.0 |  |
| GCWWMNVRTRQGCKQDSDCLAGCVCGPNGFCG (also: bicyclic or more (positions not given here)) [HtrA1 EET I-II 25] | 2.8 |  |

| Compound | S/N (HtrA1; [1]) | further results |
| --- | --- | --- |
| WIPCISAALGCSCKNKVCYYMWHVHSLICGESCV (also: bicyclic or more (positions not given here)) [HtrA1 CirculinA 36] | 9.6 |  |
| WIPCISAALGCSCKNKVCYFMTQHIRWFVKCGESCV (also: bicyclic or more (positions not given here)) [HtrA1 CirculinA 91] | 26.8 |  |
| WIPCISAALGCSCKNKVCYVATMVVHWVCGESCV (also: bicyclic or more (positions not given here)) [HtrA1 CirculinA 34] | 16.8 |  |
| WIPCISAALGCSCKNKVCYIVILTTPCGESCV (also: bicyclic or more (positions not given here)) [HtrA1 CirculinA 73] | 8.4 |  |
| WIPCISAALGCSCKNKVCYALNNMVQFLYIHHCGESCV (also: bicyclic or more (positions not given here)) [HtrA1 CirculinA 66] | 12.7 |  |
| GPAHSTYGRCGGIDYYGPTVCASGTTCLVLWPALSWCLPRSF (also: bicyclic or more (positions not given here)) [Lgr5ECD-Fc CBD 17] |  | S/N (Lgr5ECD-Fc): 26.2 |
| AFDCLGQCGRCDFHKLQCVYRQFWMVKFGWQPGYCNSSCTR (also: bicyclic or more (positions not given here)) [HtrA1 AVR9 10] | 15.2 |  |
| AFDCLGQCGRCDFHKLQCVRYLIKYSIMWMTYCNSSCTR (also: bicyclic or more (positions not given here)) [HtrA1 AVR9 26] | 15.1 |  |
| GCGYWWKKWFCKQDSDCLAGCVCGPNSFCG (also: bicyclic or more (positions not given here)) [Lgr5ECD-Fc EET I-II 9] |  | S/N (Lgr5ECD-Fc): 29.2 |
| AFDCLGQCGRCDFHKLQCVVFQIIYQAVNYCNSSCTR (also: bicyclic or more (positions not given here)) [HtrA1 AVR9 88] | 9.5 |  |
| GCGYWYRVWFCKQDSDCLAGCVCQEPGPCG (also: bicyclic or more (positions not given here)) [Lgr5ECD-Fc EET I-II 2] |  | S/N (Lgr5ECD-Fc): 44.3 |
| WIPCISAALGCSCKNKVCYYAGKIYSWQAQLLCGESCV (also: bicyclic or more (positions not given here)) [HtrA1 CirculinA 93] | 8.4 |  |
| GCGYWYLEWFCKQDSDCLAGCVCGPNGFCG (also: bicyclic or more (positions not given here)) [Lgr5ECD-Fc EET I-II 18] |  | S/N (Lgr5ECD-Fc): 9.9 |
| GPTQSQYGICGGIGYSGPTVCASGTTCQVLSPEFSQCLPGAS (also: bicyclic or more (positions not given here)) [Lgr5ECD-Fc CBD 14] |  | S/N (Lgr5ECD-Fc): 12.1 |
| WIPCISAALGCSCKNKVCYQVWQHIFKCGESCV (also: bicyclic or more (positions not given here)) [HtrA1 CirculinA 67] | 15.4 |  |
| GCHSVHSMCKQDSDCLAGCVCYWFYGCG (also: bicyclic or more (positions not given here)) [HtrA1 EET I-II 1] | 11.8 |  |
| AFDCLGQCGRCDFHKLQCVQYAYRWLMRQYCNSSCTR (also: bicyclic or more (positions not given here)) [HtrA1 AVR9 55] | 4.1 |  |
| WIPCISAALGCSCKNKVCYMYYYIMGQNLMNTCGESCV (also: bicyclic or more (positions not given here)) [HtrA1 CirculinA 48] | 24.1 |  |
| GCGYWWRTWFCKQDSDCLAGCVCGPNGFCG (also: bicyclic or more (positions not given here)) [Lgr5ECD-Fc EET I-II 13] |  | S/N (Lgr5ECD-Fc): 17.1 |
| GCTSNFWYKQWFCKQDSDCLAGCVCGPNGFCG (also: bicyclic or more (positions not given here)) [Lgr5ECD-Fc EET I-II 5] |  | S/N (Lgr5ECD-Fc): 39.0 |
| GCPRILMRCKQDSDCLAGCVCWMPVLCV (also: bicyclic or more (positions not given here)) [HtrA1 EET I-II 19] | 3.1 |  |
| GCREMLGNWVCKRFRLSSWLCLWSNGFCGT [HtrA1 EET I-II 41] | 11.8 |  |
| GPTQSLFGMCGGIGYSGPTVCASGTTCQVLDPTTSQCLPGAS (also: bicyclic or more (positions not given here)) [Lgr5ECD-Fc CBD 2] |  | S/N (Lgr5ECD-Fc): 42.7 |
| GCHEGYWWRQWFCKQDSDCLAGCVCGPNGFCG (also: bicyclic or more (positions not given here)) [Lgr5ECD-Fc EET I-II 16] |  | S/N (Lgr5ECD-Fc): 11.5 |
| GPTQSHYGQCGGSGYWGLFMCASGTTCQSVTMTVSQCLPGAS (also: bicyclic or more (positions not given here)) [HtrA1 CBD 54] | 5.6 |  |
